This is an account of results in patent publication US20180042983A1, “THERAPEUTIC COMPOSITIONS INCLUDING MITOCHONDRIAL FISSION INHIBITOR PEPTIDES, VARIANTS THEREOF, AND METHODS OF USING THE SAME” (STEALTH PEPTIDES INTERNATIONAL, INC., priority 2015, published 2018).

For one data set, the system named is neonatal cardiomyocytes. The data set can be described thus: Ang II-induced mitochondrial ROS in neonatal cardiomyocytes (Mitosox flow cytometry). Format: cell-based, mouse. As to conditions: after Ang II (1 μM, 3 hours). The protocol: Ventricles from mouse neonates younger than 72 hours will be dissected, minced, and enzymatically digested with Blendzyme 4 (45 mg/mL, Roche). After enzymatic digestion, cardiomyocytes will be enriched using differential pre-plating for 2 hours, and seeded on fibronectin-coated culture dishes for 24 hours in DMEM (Gibco) with 20% Fetal Bovine Serum (Sigma) and 25 μM Arabinosylcytosine (Sigma). Cardiomyocytes will be stimulated with Angiotensin II (1 μM) for 3 hours in serum-free DMEM containing 0.5% insulin transferrin-selenium (Sigma), 2 mM glutamine, and 1 mg/mL BSA. […] To measure mitochondrial superoxide concentration, Mitosox ([…]) will be incubated for 30 minutes at 37° C. to load cardiomyocytes, followed by 2 washes with Hanks Balanced Salt Solution. Samples will be analyzed using excitation/emission of 488/625 nm by flow cytometry. Flow data will be analyzed using FCS Express (De Novo Software, Los Angeles, Calif., U.S.A.), and presented as histogram distributions of Mitosox fluorescence intensity.
In general terms: In flow cytometry, cells or beads pass a laser one at a time.

In data set [1] the test system is several mammalian cell types. As to conditions: cited from earlier work.

For `CC(=O)N[C@@H](CS)C(=O)O` [N-acetyl cysteine], in the data set on neonatal cardiomyocytes, the “mitochondrial ROS (Mitosox fluorescence)” value was “not show any effect”.
For the compound 2′,6′-Dmt-D-Arg-Phe-Lys-NH2, the “penetration of the plasma membrane” value in data set [1] is given as “readily penetrates the plasma membrane of several mammalian cell types in an energy-independent manner”.
